In ChEMBL document CHEMBL1201862, “PubChem BioAssay data set” (2004):
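48-hour exposure; five concentrations; linearly interpolated endpoints. The concentration for 50% growth inhibition is given as GI50.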 The source made the active and inactive calls. No stated cut-off is given here; in the data, active = GI50 up to about 1.1 µM and inactive = higher. Residues, ends and D or L forms follow the SMILES beside them.

What was measured:
Assay in all cases: DTP human tumour cell line panel, 48 h
HCT-116 = system: HCT-116
SF-268 = system: SF-268
OVCAR-3 = system: OVCAR-3
SK-MEL-28 = system: SK-MEL-28
SNB-19 = system: SNB-19
MDA-MB-435 = system: MDA-MB-435
SW-620 = system: SW-620
MDA-MB-231 = system: MDA-MB-231
ACHN = system: ACHN
SK-MEL-2 = system: SK-MEL-2
SK-MEL-5 = system: SK-MEL-5
HL-60 = system: HL-60
UACC-257 = system: UACC-257
COLO 205 = system: COLO 205
K562 = system: K562
CAKI-1 = system: CAKI-1
PC-3 = system: PC-3
KM12 = system: KM12
RPMI-8226 = system: RPMI-8226
HOP-92 = system: HOP-92

| Compound | GI50 (HCT-116) | GI50 (SF-268) | GI50 (OVCAR-3) | GI50 (SK-MEL-28) | GI50 (SNB-19) | GI50 (MDA-MB-435) | GI50 (SW-620) | GI50 (MDA-MB-231) | GI50 (ACHN) | GI50 (SK-MEL-2) | GI50 (SK-MEL-5) | GI50 (HL-60) | GI50 (UACC-257) | GI50 (COLO 205) | GI50 (K562) | GI50 (CAKI-1) | GI50 (PC-3) | GI50 (KM12) | GI50 (RPMI-8226) | GI50 (HOP-92) |
| --- | --- | --- | --- | --- | --- | --- | --- | --- | --- | --- | --- | --- | --- | --- | --- | --- | --- | --- | --- | --- |
| C=C(CCOC)CCC1CCCCC(=C)[C@H]1OC(C)=O (stereo partly drawn) | > 100 µM (inactive) | > 100 µM (inactive) | > 100 µM (inactive) | > 100 µM (inactive) | > 100 µM (inactive) | > 100 µM (inactive) | > 100 µM (inactive) | > 100 µM (inactive) | > 100 µM (inactive) | > 100 µM (inactive) | 63.2 µM (inactive) | 50.7 µM (inactive) | > 100 µM (inactive) | > 100 µM (inactive) | > 100 µM (inactive) | > 100 µM (inactive) | > 100 µM (inactive) | > 100 µM (inactive) | 51.1 µM (inactive) | > 100 µM (inactive) |
| C/C(=N\NC(N)=S)c1ccc2c(c1)Sc1ccccc1O2 | 2.69 µM (inactive) | 2.36 µM (inactive) | 1.02 µM (active) | 3.81 µM (inactive) | 6.55 µM (inactive) | 0.29 µM (active) | 2.56 µM (inactive) | 5.05 µM (inactive) | 4.55 µM (inactive) | 2.11 µM (inactive) | 1.58 µM (inactive) | 3.88 µM (inactive) | 6.14 µM (inactive) | 1.1 µM (active) | 2.36 µM (inactive) | 1.04 µM (active) | 2.59 µM (inactive) | 4.19 µM (inactive) | 2.16 µM (inactive) | 3.17 µM (inactive) |
| C=C1NC(=O)C(CC(C(=O)C(=O)Nc2c(C)cccc2C(C)(C)C)C(=O)c2ccc3ccccc3c2)C(=O)N1 (stereo not drawn) | > 100 µM (inactive) | > 100 µM (inactive) | > 100 µM (inactive) | > 100 µM (inactive) | > 100 µM (inactive) | > 100 µM (inactive) | > 100 µM (inactive) | > 100 µM (inactive) | > 100 µM (inactive) | > 100 µM (inactive) | > 100 µM (inactive) | > 100 µM (inactive) | > 100 µM (inactive) | > 100 µM (inactive) | > 100 µM (inactive) | > 100 µM (inactive) | > 100 µM (inactive) | > 100 µM (inactive) | > 100 µM (inactive) | > 100 µM (inactive) |
| C(=C\c1nccs1)/c1cccc(/C=C/c2nccs2)n1 | > 50 µM (inactive) | > 50 µM (inactive) | > 50 µM (inactive) | > 50 µM (inactive) | > 50 µM (inactive) | > 50 µM (inactive) | > 50 µM (inactive) | > 50 µM (inactive) | > 50 µM (inactive) | > 50 µM (inactive) | > 50 µM (inactive) | > 50 µM (inactive) | > 50 µM (inactive) | > 50 µM (inactive) | > 50 µM (inactive) | > 50 µM (inactive) | > 50 µM (inactive) | > 50 µM (inactive) | > 50 µM (inactive) | > 50 µM (inactive) |
| CCC(C)C(NC(=O)C(CC(C)C)NC(=O)CNC(=O)C(NC(=O)C1CCCN1C(=O)C(CC(C)C)NC(=O)C(N)Cc1ccccc1)C(C)CC)C(=O)NC(CC(C)C)C(N)=O (stereo not drawn) (H-FLPIGLIL-NH2; configuration not given here) | > 75 µM (inactive) | > 75 µM (inactive) | > 75 µM (inactive) | > 75 µM (inactive) | > 75 µM (inactive) | > 75 µM (inactive) | > 75 µM (inactive) | > 75 µM (inactive) | > 75 µM (inactive) | > 75 µM (inactive) | > 75 µM (inactive) | > 75 µM (inactive) | > 75 µM (inactive) | > 75 µM (inactive) | > 75 µM (inactive) | > 75 µM (inactive) | > 75 µM (inactive) | > 75 µM (inactive) | > 75 µM (inactive) | > 75 µM (inactive) |
| Cc1nnc2n1N=C(c1cc(F)c(Cl)cc1Cl)/C(=C/c1ccc(Cl)cc1)S2 | 7 µM (inactive) | 41.8 µM (inactive) | 12.7 µM (inactive) | 38.8 µM (inactive) | 23.7 µM (inactive) | 13.6 µM (inactive) | 37.7 µM (inactive) | 15.8 µM (inactive) | 16.5 µM (inactive) | 8.15 µM (inactive) | 19.2 µM (inactive) | 26.4 µM (inactive) | 17 µM (inactive) | 33.4 µM (inactive) | 17.5 µM (inactive) | 10.1 µM (inactive) | 20.6 µM (inactive) | 12.8 µM (inactive) | 15.5 µM (inactive) | 19.6 µM (inactive) |
| CC(C)(Cl)C(Cl)CC/C(CBr)=C(\Cl)CBr (stereo not drawn) | 2.23 µM (inactive) | 3.3 µM (inactive) | 2.64 µM (inactive) | 2.03 µM (inactive) | 11.1 µM (inactive) | 2.37 µM (inactive) | 1.6 µM (inactive) | 2 µM (inactive) | 3.66 µM (inactive) | 1.67 µM (inactive) | 1.79 µM (inactive) | 0.32 µM (active) | 2.08 µM (inactive) | 2.62 µM (inactive) | 0.586 µM (active) | 2.62 µM (inactive) | 3.15 µM (inactive) | 2.08 µM (inactive) | 0.706 µM (active) | 1.75 µM (inactive) |
| C=C1C(=O)C2(C)OC2(C)C1C(=O)O (stereo not drawn) | > 100 µM (inactive) | > 100 µM (inactive) | > 100 µM (inactive) | > 100 µM (inactive) | > 100 µM (inactive) | > 100 µM (inactive) | > 100 µM (inactive) | > 100 µM (inactive) | > 100 µM (inactive) | > 100 µM (inactive) | > 100 µM (inactive) | > 100 µM (inactive) | > 100 µM (inactive) | > 100 µM (inactive) | > 100 µM (inactive) | > 100 µM (inactive) | > 100 µM (inactive) | > 100 µM (inactive) | > 100 µM (inactive) | > 100 µM (inactive) |
| O=C(O)COc1c(Cl)cc(Cl)c2cccnc12 | > 100 µM (inactive) | > 100 µM (inactive) | > 100 µM (inactive) | > 100 µM (inactive) | > 100 µM (inactive) | > 100 µM (inactive) | > 100 µM (inactive) | > 100 µM (inactive) | > 100 µM (inactive) | > 100 µM (inactive) | > 100 µM (inactive) | > 100 µM (inactive) | > 100 µM (inactive) | > 100 µM (inactive) | > 100 µM (inactive) | > 100 µM (inactive) | > 100 µM (inactive) | > 100 µM (inactive) | > 100 µM (inactive) | > 100 µM (inactive) |
| C=C(C)C(=O)OC1CC2(C)OC2CC(OC(C)=O)/C(C)=C/C2OC(=O)C(=C)C21 (stereo not drawn) | 1.7 µM (inactive) | 2.12 µM (inactive) | 2.26 µM (inactive) | 0.724 µM (active) | 15.2 µM (inactive) | 1.18 µM (inactive) | 0.426 µM (active) | 6.49 µM (inactive) | 1.49 µM (inactive) | 5.37 µM (inactive) | 8.2 µM (inactive) | 0.207 µM (active) | 6.5 µM (inactive) | 1.52 µM (inactive) | 0.56 µM (active) | 2.53 µM (inactive) | 9.08 µM (inactive) | 11.2 µM (inactive) | 0.349 µM (active) | 3.64 µM (inactive) |
| Cc1cc2cc3c(cc2c(-c2ccc(N)cc2)n1)OCO3 | 31.6 µM (inactive) | 22.3 µM (inactive) | 22.4 µM (inactive) | – | > 100 µM (inactive) | 76.6 µM (inactive) | 31.6 µM (inactive) | 13.7 µM (inactive) | 39.5 µM (inactive) | 82.8 µM (inactive) | 24.2 µM (inactive) | 12 µM (inactive) | > 100 µM (inactive) | 26.8 µM (inactive) | 23.1 µM (inactive) | 26.5 µM (inactive) | 40.7 µM (inactive) | 38.9 µM (inactive) | 23.8 µM (inactive) | 13.9 µM (inactive) |
| COC(C)(C)[C@@H](O)[C@H]1C[C@H](C)[C@@]2(CC[C@]3(C)[C@@H]2CC[C@@H]2[C@@]4(C)CC[C@@H](OC(C)=O)C(C)(C)[C@@H]4C[C@@H](OC4OC(COC(C)=O)C(O)C(O)C4O)[C@]23C)O1 (stereo partly drawn) | 3.25 µM (inactive) | 4.98 µM (inactive) | 4.26 µM (inactive) | 7.57 µM (inactive) | 8.73 µM (inactive) | 3.29 µM (inactive) | 6.81 µM (inactive) | 8.83 µM (inactive) | 5.86 µM (inactive) | 4.75 µM (inactive) | 6.53 µM (inactive) | 2.1 µM (inactive) | 6.44 µM (inactive) | 2.38 µM (inactive) | 3.79 µM (inactive) | 8.43 µM (inactive) | 2.63 µM (inactive) | 1.79 µM (inactive) | 2.42 µM (inactive) | 4.8 µM (inactive) |
| COC1=CC(=O)c2nc3ccccc3c3ccnc1c23 | 1.2 µM (inactive) | 3.94 µM (inactive) | 2.04 µM (inactive) | 19.7 µM (inactive) | 12.4 µM (inactive) | 0.187 µM (active) | 1.03 µM (active) | 7.8 µM (inactive) | 3.42 µM (inactive) | 5.64 µM (inactive) | 0.653 µM (active) | 2.38 µM (inactive) | 5.16 µM (inactive) | 6.64 µM (inactive) | 3.37 µM (inactive) | 14.3 µM (inactive) | 1.81 µM (inactive) | 4.04 µM (inactive) | 1.83 µM (inactive) | 15.8 µM (inactive) |
| C(CCc1nnc2c(n1)CCCC2)Cc1nnc2c(n1)CCCC2 | > 100 µM (inactive) | > 100 µM (inactive) | > 100 µM (inactive) | > 100 µM (inactive) | > 100 µM (inactive) | 88.7 µM (inactive) | > 100 µM (inactive) | > 100 µM (inactive) | > 100 µM (inactive) | > 100 µM (inactive) | > 100 µM (inactive) | > 100 µM (inactive) | – | > 100 µM (inactive) | > 100 µM (inactive) | > 100 µM (inactive) | 85.7 µM (inactive) | > 100 µM (inactive) | > 100 µM (inactive) | > 100 µM (inactive) |
